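Values below derive from 48-hour exposures of cells grown in 96-well plates, with endpoints linearly interpolated between the two concentrations bracketing the appropriate inhibition level. TGI: concentration producing complete growth inhibition.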
Tests used:
Test in all cases: growth of human tumour cells (NCI), 48 h
MCF7 breast = tested on: MCF7 breast
A549 NSCLC = tested on: A549 NSCLC
SK-MEL-2 melanoma = tested on: SK-MEL-2 melanoma
EKVX NSCLC = tested on: EKVX NSCLC
SF-539 CNS = tested on: SF-539 CNS
CCRF-CEM leukemia = tested on: CCRF-CEM leukemia
HOP-62 NSCLC = tested on: HOP-62 NSCLC
SF-268 CNS = tested on: SF-268 CNS
SR leukemia = tested on: SR leukemia
MOLT-4 leukemia = tested on: MOLT-4 leukemia
MALME-3M melanoma = tested on: MALME-3M melanoma
A498 renal = tested on: A498 renal
SNB-19 CNS = tested on: SNB-19 CNS
ACHN renal = tested on: ACHN renal
RPMI-8226 leukemia = tested on: RPMI-8226 leukemia
HCT-15 colon = tested on: HCT-15 colon
NCI-H460 lung = tested on: NCI-H460 lung
NCI-H23 lung = tested on: NCI-H23 lung
T-47D breast = tested on: T-47D breast
LOX IMVI melanoma = tested on: LOX IMVI melanoma
OVCAR-3 ovarian = tested on: OVCAR-3 ovarian
U251 CNS = tested on: U251 CNS
HL-60(TB) leukemia = tested on: HL-60(TB) leukemia
MDA-N = tested on: MDA-N
NCI-H226 lung = tested on: NCI-H226 lung
NCI/ADR-RES ovarian = tested on: NCI/ADR-RES ovarian
SF-295 CNS = tested on: SF-295 CNS
SK-MEL-5 melanoma = tested on: SK-MEL-5 melanoma
DU-145 prostate = tested on: DU-145 prostate
786-0 renal = tested on: 786-0 renal
BT-549 breast = tested on: BT-549 breast
M14 melanoma = tested on: M14 melanoma
SW-620 colon = tested on: SW-620 colon
NCI-H522 lung = tested on: NCI-H522 lung
SK-OV-3 ovarian = tested on: SK-OV-3 ovarian
SK-MEL-28 melanoma = tested on: SK-MEL-28 melanoma
HCT-116 colon = tested on: HCT-116 colon
OVCAR-4 ovarian = tested on: OVCAR-4 ovarian
IGROV1 ovarian = tested on: IGROV1 ovarian
KM12 colon = tested on: KM12 colon
COLO 205 colon = tested on: COLO 205 colon
SN12C renal = tested on: SN12C renal
UO-31 renal = tested on: UO-31 renal
HS 578T breast = tested on: HS 578T breast
HT29 colon = tested on: HT29 colon
CAKI-1 renal = tested on: CAKI-1 renal
TK-10 renal = tested on: TK-10 renal
SNB-75 CNS = tested on: SNB-75 CNS
PC-3 prostate = tested on: PC-3 prostate
K-562 leukemia = tested on: K-562 leukemia
UACC-257 melanoma = tested on: UACC-257 melanoma
OVCAR-5 ovarian = tested on: OVCAR-5 ovarian
MDA-MB-435 = tested on: MDA-MB-435
MDA-MB-231 breast = tested on: MDA-MB-231 breast
RXF 393 renal = tested on: RXF 393 renal
HOP-92 NSCLC = tested on: HOP-92 NSCLC
OVCAR-8 ovarian = tested on: OVCAR-8 ovarian
UACC-62 melanoma = tested on: UACC-62 melanoma
HCC-2998 colon = tested on: HCC-2998 colon

O=C1/C(=C\c2ccc([N+](=O)[O-])o2)SC2N=C(COc3ccc(Cl)cc3)NN12 (stereo unspecified)
TGI (MCF7 breast): 4.8 µM | TGI (A549 NSCLC): 38.4 µM | TGI (SK-MEL-2 melanoma): 37.2 µM | TGI (EKVX NSCLC): 22.3 µM | TGI (SF-539 CNS): 15.5 µM | TGI (CCRF-CEM leukemia): 5.97 µM | TGI (HOP-62 NSCLC): 41.8 µM | TGI (SF-268 CNS): 13.6 µM | TGI (SR leukemia): > 100 µM | TGI (MOLT-4 leukemia): > 100 µM | TGI (MALME-3M melanoma): 6.07 µM | TGI (A498 renal): 44.3 µM | TGI (SNB-19 CNS): 31.1 µM | TGI (ACHN renal): 3.67 µM | TGI (RPMI-8226 leukemia): > 100 µM | TGI (HCT-15 colon): 4.77 µM | TGI (NCI-H460 lung): 39.5 µM | TGI (NCI-H23 lung): 35 µM | TGI (T-47D breast): 7.54 µM | TGI (LOX IMVI melanoma): 10.5 µM | TGI (OVCAR-3 ovarian): 18.9 µM | TGI (U251 CNS): 34.7 µM | TGI (HL-60(TB) leukemia): 6.03 µM | TGI (MDA-N): 14.3 µM | TGI (NCI-H226 lung): 41.3 µM | TGI (NCI/ADR-RES ovarian): 42.9 µM | TGI (SF-295 CNS): 34.1 µM | TGI (SK-MEL-5 melanoma): 27.1 µM | TGI (DU-145 prostate): 27.3 µM | TGI (786-0 renal): 13.7 µM | TGI (BT-549 breast): 21.8 µM | TGI (M14 melanoma): 13.2 µM | TGI (SW-620 colon): 9.92 µM | TGI (NCI-H522 lung): 4.81 µM | TGI (SK-OV-3 ovarian): 38.8 µM | TGI (SK-MEL-28 melanoma): 17.9 µM | TGI (HCT-116 colon): 14.5 µM | TGI (OVCAR-4 ovarian): 3.43 µM | TGI (IGROV1 ovarian): 9.82 µM | TGI (KM12 colon): 28.4 µM | TGI (COLO 205 colon): 13.3 µM | TGI (SN12C renal): 29.6 µM | TGI (UO-31 renal): 23 µM | TGI (HS 578T breast): > 100 µM | TGI (HT29 colon): 44.4 µM | TGI (CAKI-1 renal): 32.9 µM | TGI (TK-10 renal): 31.4 µM | TGI (SNB-75 CNS): 29.7 µM | TGI (PC-3 prostate): 24.4 µM | TGI (K-562 leukemia): 27 µM | TGI (UACC-257 melanoma): 16.9 µM | TGI (OVCAR-5 ovarian): 47.5 µM | TGI (MDA-MB-435): 16.3 µM | TGI (MDA-MB-231 breast): 15.9 µM | TGI (RXF 393 renal): 31.6 µM | TGI (HOP-92 NSCLC): 4.49 µM | TGI (OVCAR-8 ovarian): 10.2 µM

O=C1NC(=O)C(c2c[nH]c3cc(Br)ccc23)=C1c1cn(C(c2ccccc2)(c2ccccc2)c2ccccc2)cn1
TGI (MCF7 breast): 40.4 µM | TGI (A549 NSCLC): 27.3 µM | TGI (SK-MEL-2 melanoma): 25.8 µM | TGI (EKVX NSCLC): 29.1 µM | TGI (SF-539 CNS): 37.9 µM | TGI (CCRF-CEM leukemia): > 100 µM | TGI (HOP-62 NSCLC): 83.9 µM | TGI (SF-268 CNS): 33.1 µM | TGI (SR leukemia): 32.3 µM | TGI (MOLT-4 leukemia): 23.5 µM | TGI (MALME-3M melanoma): 56.8 µM | TGI (A498 renal): 37.2 µM | TGI (SNB-19 CNS): 97.4 µM | TGI (ACHN renal): > 100 µM | TGI (RPMI-8226 leukemia): 36.8 µM | TGI (HCT-15 colon): 37.6 µM | TGI (NCI-H460 lung): 31.4 µM | TGI (NCI-H23 lung): 25.3 µM | TGI (T-47D breast): 93 µM | TGI (LOX IMVI melanoma): 33.4 µM | TGI (UACC-62 melanoma): > 100 µM | TGI (OVCAR-3 ovarian): > 100 µM | TGI (U251 CNS): 24.7 µM | TGI (HL-60(TB) leukemia): 39.5 µM | TGI (MDA-N): 27.8 µM | TGI (NCI-H226 lung): 19.3 µM | TGI (NCI/ADR-RES ovarian): > 100 µM | TGI (SF-295 CNS): > 100 µM | TGI (SK-MEL-5 melanoma): 22.9 µM | TGI (DU-145 prostate): 62.8 µM | TGI (786-0 renal): 23.2 µM | TGI (BT-549 breast): 38.8 µM | TGI (M14 melanoma): 29.9 µM | TGI (SW-620 colon): > 100 µM | TGI (NCI-H522 lung): 34 µM | TGI (SK-OV-3 ovarian): > 100 µM | TGI (SK-MEL-28 melanoma): 92.6 µM | TGI (HCC-2998 colon): 26.4 µM | TGI (HCT-116 colon): 23.6 µM | TGI (OVCAR-4 ovarian): > 100 µM | TGI (IGROV1 ovarian): 28.5 µM | TGI (KM12 colon): > 100 µM | TGI (COLO 205 colon): 27.4 µM | TGI (SN12C renal): 31.8 µM | TGI (UO-31 renal): 31.9 µM | TGI (HS 578T breast): > 100 µM | TGI (HT29 colon): 27.1 µM | TGI (CAKI-1 renal): 97.4 µM | TGI (TK-10 renal): 38.4 µM | TGI (SNB-75 CNS): 48.8 µM | TGI (PC-3 prostate): 50.4 µM | TGI (K-562 leukemia): 45.9 µM | TGI (UACC-257 melanoma): 51.2 µM | TGI (OVCAR-5 ovarian): 39 µM | TGI (MDA-MB-435): > 100 µM | TGI (MDA-MB-231 breast): 21.4 µM | TGI (RXF 393 renal): 37.5 µM | TGI (HOP-92 NSCLC): 30.3 µM | TGI (OVCAR-8 ovarian): 36.5 µM
